Assays:
[1] = clinical tests; U.S. Pat. No. 4,497,826; cited from earlier work
[2] = Acute toxicity by oral dosage to rat; details: in vivo
[3] = Acute toxicity by oral dosage to dog; details: in vivo
[4] = Diuretic action (general statement); type: in vivo; details: for diuretic action (in words): in vivo
[5] = Acute toxicity by oral dosage to mouse; details: in vivo
[6] = clinical tests; U.S. Pat. No. 4,330,558; cited from earlier work
[7] = animals; U.S. Pat. No. 3,920,728; cited from earlier work
[8] = tested on: aromatic L-amino acid decarboxylase; details: cited from earlier work; for NA isomer formed: in vivo
[9] = U.S. Pat. No. 4,529,603; cited from earlier work
[10] = rats; Araki et al. 1978; cited from earlier work
[11] = tested on: harmaline induced tremor; details: Japanese Patent Publication 125630/1977; cited from earlier work
[12] = Effect of periphery decarboxylase inhibitor (DCI) on diuretic action of L-threo-DOPS (Experimental Example 3); type: in vivo, rats; details: for effect on diuretic action of L-threo-DOPS when used together (in words): p.o. at the same time with L-threo-DOPS
Protocol: Investigation was made on the effect of L-threo-DOPS on diuretic action when DCI, benserazide or carbidopa was dosed by oral administration at the same time, as in the same manner as Experimental Example 1.

[13] = Effect of L-threo-DOPS on urinary volume of rats (Experimental Example 1); type: in vivo; details: rats, 10, 30, 100 mg/kg p.o., 3 hours, FIG. 1
Protocol: (§1) The ordinate represents the urinary volume (ml/kg/3 hr) and the abscissa, the amount of dosage of L-threo-DOPS (mg/kg).
(§2) In FIG. 1 and FIG. 2, the mark * represents p<0.05 (compared with the control group).
(§3) Three rats starved for 17 hours were arranged to form a group. Ten mg/kg, 30 mg/kg, and 100 mg/kg of L-threo-DOPS were suspended in a 0.5% aqueous solution of methyl cellulose, respectively, and orally administered together with 25 ml/kg of isotonic sodium chloride solution. To the control groups were dosed only 0.5% aqueous solution of methyl cellulose and isotonic sodium chloride solution. The urinary volume was measured through 3 hours after the dosage. In addition, among electrolytes in the urine, amounts of sodium ion (Na^+) and potassium ion (K^+) were measured by a flame photometer, and an amount of chlorine ion (Cl^-) by the method of Zall et al. (Anal. Chem. 28, 1665).

[14] = Effect of L-threo-DOPS on electrolytes in urine of rats (Experimental Example 1); type: in vivo; details: for amount of Cl^- in urine / amount of K^+ in urine / amount of Na^+ in urine: 3 hours, average of 5 groups±S.E.
Protocol: as §3
In the table, values are represented in a unit of mEq/kg/3 hr and as the average of 5 groups±S.E.

[15] = Amount of NA in the kidney and heart of rats after the dosage of L-threo-DOPS (Experimental Example 4); type: in vivo
Protocol: To the rats were dosed 30 mg/kg of L-threo-DOPS by oral adminstration, and the amount of NA in the kidney and heart after 1 hour was measured.
The method for the measurement was nearly in accordance with the method of Suzuki, et al. (Europ. J. Clin. Pharmacol., 23, 463, 1982).

[16] = Effect of L-threo-DOPS on urinary volume of mice (Experimental Example 2); type: in vivo; details: FIG. 2
Protocol: as §1, §2
Ten mice starved for 17 hours were arranged to form a group. Ten mg/kg, 30 mg/kg, and 100 mg/kg of L-threo-DOPS were suspended in a 0.5% aqueous solution of methyl cellulose, respectively, and orally administered together with […] of isotonic sodium chloride solution. To the control groups were dosed only 0.5% aqueous solution of methyl cellulose and isotonic sodium chloride solution.

[17] = rats; Araki et al. 1981; cited from earlier work
[18] = tested on: renal blood vessel; details: in vivo; cited from earlier work
[19] = rats, 30 mg/kg p.o., after 1 hour, average of 5 rats±S.E.

Compound: N[C@H](C(=O)O)[C@H](O)c1ccc(O)c(O)c1 (relative stereo) [DL-threo-DOPS]
- effect on freezing phenomena of Parkinson's disease [1]: beneficial effects
- LD50 [2]: ≥ 10000 mg/kg
- LD50 [3]: ≥ 10000 mg/kg
- diuretic action (in words) [4]: significant diuretic action
- LD50 [5]: ≥ 10000 mg/kg
- effect on orthostatic hypotension [6]: beneficial effects

Compound: N[C@H](C(=O)O)[C@@H](O)c1ccc(O)c(O)c1 (relative stereo) [erythro-DOPS, reference compound]
- antihypertensive or antidepressive effect [7]: antihypertensive or antidepressive effect

Compound: N[C@H](C(=O)O)[C@H](O)c1ccc(O)c(O)c1 (relative stereo) [threo-DOPS, threo-3-(3,4-dihydroxyphenyl)-serine]
- antihypertensive or antidepressive effect [7]: antihypertensive or antidepressive effect

Compound: N[C@H](C(=O)O)C(O)c1ccc(O)c(O)c1 (stereo partly drawn) [L-DOPS]
- conversion to noradrenaline in vivo ([8]; by aromatic L-amino acid decarboxylase): converted to noradrenaline

Compound: N[C@H](C(=O)O)[C@@H](O)c1ccc(O)c(O)c1 [L-erythro-DOPS]
- NA isomer formed [8]: unnatural type d-NA
- effect on psychmotor excitement [9]: suppressive effect

Compound: N[C@H](C(=O)O)[C@H](O)c1ccc(O)c(O)c1 [L-threo-DOPS]
- positive chronotropic effect [10]: positive chronotropic effect
- effect on freezing phenomena of Parkinson's disease [1]: beneficial effects
- effect on harmaline induced tremor [11]: inhibitory effect
- NA isomer formed [8]: natural type l-NA
- LD50 [2]: ≥ 10000 mg/kg
- LD50 [3]: ≥ 10000 mg/kg
- course of diuretic action (in words) ([4]; easy manner such as oral administration): uniformly and prolongably
- diuretic action (in words) [4]: significant diuretic action
- Urinary volume ([12]; L-threo-DOPS 30 mg/kg p.o. alone, average of 5 groups±S.E.): 51.9 ± 3.0 ml/kg/3 hr
- urinary volume (in words) [13]: Increase in the urinary volume was recognized in accordance with the amount of dosage
- amount of Cl^- in urine ([14]; 10 mg/kg p.o.): 1.89 ± 0.14 mEq/kg/3 hr
- amount of K^+ in urine ([14]; 10 mg/kg p.o.): 0.32 ± 0.03 mEq/kg/3 hr
- amount of Na^+ in urine ([14]; 10 mg/kg p.o.): 1.58 ± 0.12 mEq/kg/3 hr
- amount of Cl^- in urine ([14]; 30 mg/kg p.o.): 2.97 ± 0.25 mEq/kg/3 hr
- amount of K^+ in urine ([14]; 30 mg/kg p.o.): 0.37 ± 0.05 mEq/kg/3 hr
- amount of Na^+ in urine ([14]; 30 mg/kg p.o.): 2.45 ± 0.32 mEq/kg/3 hr
- amount of Cl^- in urine ([14]; 100 mg/kg p.o.): 3.24 ± 0.07 mEq/kg/3 hr
- amount of K^+ in urine ([14]; 100 mg/kg p.o.): 0.45 ± 0.03 mEq/kg/3 hr
- amount of Na^+ in urine ([14]; 100 mg/kg p.o.): 3.15 ± 0.07 mEq/kg/3 hr
- amount of Na^+ in urine (in words) ([14]; groups dosed 10 mg/kg or more p.o.): significantly increases
- amount of Cl^- in urine (in words) ([14]; only in groups dosed 30 mg/kg or more p.o.): significantly increased
- amount of K^+ in urine (in words) ([14]; only in the group dosed 100 mg/kg p.o.): significant increase
- amount of K^+ in urine (in words) ([14]; p.o., doses in general): not so much influenced
- LD50 [5]: ≥ 10000 mg/kg
- effect on orthostatic hypotension [6]: beneficial effects
- NA in the heart (in words) ([15]; 30 mg/kg p.o.): no influence
- amount of NA in the kidney (in words) ([15]; 30 mg/kg p.o.): markedly increases
- NA concentration in the kidney compared with those in other organs (in words) ([15]; rat, in vivo): significantly increased
- amount of NA in the heart [15, 19]: 1.00 ± 0.06 ng/g wet weight
- amount of NA in the kidney [15, 19]: 1.80 ± 0.35 ng/g wet weight
- urinary volume (in words) ([16]; mice, 10, 30, 100 mg/kg p.o.): increases the urinary volume in accordance with the amount of dosage
- urinary volume, significance (in words) ([16]; mice, group dosed 100 mg/kg p.o.): significant
- pressor effect [17]: pressor effect

Compound: NC(CO)C(=O)NNCc1ccc(O)c(O)c1O (stereo not drawn) [benserazide]
- effect on diuretic action of L-threo-DOPS when used together (in words) [12]: significantly decreased

Compound: C[C@@](Cc1ccc(O)c(O)c1)(NN)C(=O)O [carbidopa]
- effect on diuretic action of L-threo-DOPS when used together (in words) [12]: significantly decreased

Compound: NC[C@H](O)c1ccc(O)c(O)c1 [l-NA]
- action on the renal blood vessel [18]: contractive action
- effect on renal blood flow [18]: decrease in the renal blood flow

Source: US4647587A, “Method for treatment of antidiuresis employing serine derivatives” (Sumitomo Pharmaceuticals Company, Limited, priority 1984, dated 1987)
